From patent publication US20260219274A1, “POLYOL SWEETNERS AND CARDIOVASCULAR AND THROMBOTIC EVENT RISK” (THE CLEVELAND CLINIC FOUNDATION, priority 2023, published 2026)

Tests used:
[1] = Erythritol intervention study (COSETTE): postprandial plasma erythritol levels; type: in vivo, human; details: for hours after ingestion of 30 g
Procedure: In a fourth study, the first phase of the Erythritol Intervention Study (COSETTE, clinicaltrials.gov number: NCT04731363), prospectively recruited healthy volunteers ingested a standard-size artificially sweetened beverage (300 mL) containing 30 g of erythritol with instructions to consume the drink within 2 minutes, and blood samples were collected at scheduled post-prandial time points for crythritol measurement. For each participant in the erythritol intervention study (n=8), baseline blood samples were first obtained after overnight (≥8 hours) fasting. […] Therefore, participants were given 30 g erythritol dissolved in 300 mL water. Serial venous blood sampling was performed up to 7d after baseline. […]
Stable-isotope-dilution LC/MS/MS was used for quantification of erythritol, threitol, and 1,5-AHG in human and mouse plasma. […] Limit of detection (LOD) and limit of quantification (LOQ) were as follow: threitol:0.048 and 0.160 μM; erythritol: 0.026 and 0.089 μM; 1,5-AHG: […]; respectively. Three quality control samples were run with each batch of samples and inter-batch variations expressed as coefficient of variation (CV) were less than 7% for all analytes monitored. Data were collected and analyzed by LabSolution 5.91 software (Shimadzu).

dogs = details: dog, in vivo; cited from earlier work
[2] = tested on: PRP from healthy volunteers; test: Xylitol dietary challenge: platelet aggregometry before and 30 min after ingestion; type: in vivo, human
Procedure: The second part of xylitol ingestion studies focused on platelet phenotypic changes after oral xylitol challenge. In these parallel studies, platelet-rich plasma (PRP) was isolated immediately after the blood draw (from the same subjects that were used for xylitol pharmacokinetics studies) and aggregometry assays performed (as described below) on blood samples collected at baseline and 30 min (when postprandial peak levels were observed) after xylitol exposure.
A non-randomized study design was used wherein each subject served as their own control, comparing both xylitol levels and indices of platelet function within subjects at baseline versus 30 min following ingestion of the standardized drink of xylitol. […]
Platelet rich plasma (PRP) was isolated as previously described.^5 Whole blood was drawn from healthy donors and anticoagulated with sodium citrate (0.109 M). […] Next, platelets were counted with a hemocytometer and the platelet concentration adjusted to 2×10^8/mL using PPP. […] When used, pairs of vehicle vs. xylitol incubated PRP were always incubated and analyzed together (beginning, middle, end of platelet prep use) and after 120 minutes post isolation, PRPs were not used anymore.

Row | Structure (SMILES) | elevation of plasma erythritol over baseline [1] [fold] | toxicity to dogs (dogs) | aggregation responses to ADP or TRAP6 after ingestion ([2]; 30 min after 30 g xylitol vs baseline) | platelet responsiveness of individual subjects ([2]; submaximal ADP and TRAP6, after xylitol ingestion, every subject)
1 | OC[C@@H](O)[C@@H](O)CO [erythritol] | 1000 | – | – | –
2 | OC[C@@H](O)[C@H](O)[C@@H](O)CO [xylitol] | – | highly toxic | substantial (multiple-fold) increase | significant increase
